Key:
[1] = tested on: airway epithelial sodium currents in canine bronchial epithelia (ENaC); assay: In vitro measure of sodium channel blocking activity (short circuit current, Ussing chambers); type: cell-based; conditions: potency in canine bronchial epithelia, reported as fold-enhancement relative to amiloride
Protocol: In Vitro Measure of Sodium Channel Blocking Activity and Reversibility One assay used to assess mechanism of action and/or potency of the compounds of the present invention involves the determination of lumenal drug inhibition of airway epithelial sodium currents measured under short circuit current (ISC) using airway epithelial monolayers mounted in Ussing chambers. Cells obtained from freshly excised human, dog, sheep or rodent airways are seeded onto porous 0.4 micron Snapwell™ Inserts (CoStar), cultured at air-liquid interface (ALI) conditions in hormonally defined media, and assayed for sodium transport activity (ISC) while bathed in Krebs Bicarbonate Ringer (KBR) in Using chambers. All test drug additions are to the lumenal bath with half-log dose addition protocols (from 1×10^−11 M to 3×10^−5 M), and the cumulative change in ISC (inhibition) recorded. All drugs are prepared in dimethyl sulfoxide as stock solutions at a concentration of 1×10^−2 M and stored at −20° C. Eight preparations are typically run in parallel; two preparations per run incorporate amiloride and/or benzamil as positive controls. After the maximal concentration ([…]) is administered, the lumenal bath is exchanged three times with fresh drug-free KBR solution, and the resultant ISC measured after each wash for approximately 5 minutes in duration. Reversibility is defined as the percent return to the baseline value for sodium current after the third wash. All data from the voltage clamps are collected via a computer interface and analyzed off-line. Dose-effect relationships for all compounds are considered and analyzed by the Prism 3.0 program. IC50 values, maximal effective concentrations, and reversibility are calculated and compared to amiloride and benzamil as positive controls. […] The results for the compounds of the present invention are reported as fold-enhancement values relative to amiloride.

Row | melting point | SMILES | Fold Amiloride [1]
1 | 98 to 100 °C (dec.) | NC(=O)CN(CCOc1ccc(CCCCNC(N)=NC(=O)c2nc(Cl)c(N)nc2N)cc1)CC(N)=O [ALB 28062, 2-{Carbamoylmethyl-[2-(4-{4-[N′-(3,5-diamino-6-chloropyrazine-2-carbonyl)-guanidino]butyl}phenoxy)ethyl]amino}acetamide] | 
2 | 84 to 88 °C | COC(=O)CC(CC(=O)OC)NCCOc1ccc(CCCCNC(N)=NC(=O)c2nc(Cl)c(N)nc2N)cc1 [ALB 28588, 3-[2-(4-{4-[N′-(3,5-Diamino-6-chloropyrazine-2-carbonyl)guanidino]butyl}phenoxy)ethylamino]pentanedioic acid dimethyl ester] | 
3 | 92 to 94 °C (dec.) | NC(=O)CNCCOc1ccc(CCCCNC(N)=NC(=O)c2nc(Cl)c(N)nc2N)cc1 [ALB 28683, 2-[2-(4-{4-[N′-(3,5-Diamino-6-chloropyrazine-2-carbonyl)guanidino]butyl}-phenoxy)ethylamino]acetamide] | 
4 | 110 to 112 °C (dec.) | NC(=NC(=O)c1nc(Cl)c(N)nc1N)NCCCCc1ccc(OCCNCC(=O)O)cc1 [ALB 28897, [2-(4-{4-[N′-(3,5-Diamino-6-chloropyrazine-2-carbonyl)guanidino]butyl}-phenoxy)ethylamino]acetic acid] | 

Further lines, the compound ahead of its results:

Row | SMILES | melting point | Fold Amiloride [1]
5 | N=C(NCCCCc1ccc(OCCN(CC(N)=O)CC(N)=O)cc1)NC(=O)c1nc(Cl)c(N)nc1N [Compound 1] |  | 77
6 | N=C(NCCCCc1ccc(OCCN(CC(=O)O)CC(=O)O)cc1)NC(=O)c1nc(Cl)c(N)nc1N [Compound 2] |  | 16
7 | N=C(NCCCCc1ccc(OCCNCC(N)=O)cc1)NC(=O)c1nc(Cl)c(N)nc1N [Compound 3] |  | 10
8 | COC(=O)CC(CC(=O)OC)NCCOc1ccc(CCCCNC(=N)NC(=O)c2nc(Cl)c(N)nc2N)cc1 [Compound 4] |  | 81

Source: patent US8211895B2, “Capped pyrazinoylguanidine sodium channel blockers” (Parion Sciences, Inc., priority 2005, dated 2012)
